Series [1] relates to MT2 cells. The series can be described thus: cytotoxicity towards host cells in the viral-binding inhibition assay. The series is classed as cell-based. As to conditions: at the concentration ranges used in the viral-binding inhibition assay. The procedure:
Serial dilutions of the test compounds (ranging from 0.1 μg/ml to 1.0 mg/ml) were added to HIV-1 virus such that 50 μl inoculum produced between 70 to 100 syncytia per well in untreated wells containing MT2 cells. The HIV-1 used was strain IIIs propagated in, and harvested from, a T4-lymphobastoid cell line. Each serial dilution of the test compound with virus was placed in each of three wells containing MT2 cells. The test compound alone was added to a fourth well containing MT2 cells to test for possible cytotoxicity. Triplicate virus control samples (no added test compounds but containing the equivalent amounts of the RPMI medium) were also included.

Series [2] concerns sheep testicular hyaluronidase. Kind of series: hyaluronidase inhibition (hyaluronic acid hydrolysis). The format is biochemical. As to conditions: pH 5.5, 10 minutes preincubation; inactive = no inhibition at 1 mg/ml. The method, then:
Hyaluronidase activity was quantitatively determined by measuring the extent of hyaluronic acid hydrolysis (i.e., the concentration of N-acetylglucosamine-reactive material formed from enzyme activity). Reaction mixtures (0.25 ml) containing the following were prepared: test compound (variable concentration); 0.1 M sodium acetate; 0.15 M sodium chloride; pH adjusted to 5.5; 7.2 units sheep testicular hyaluronidase (Sigma, Type III; H-2251) contained in an acetate buffer; 0.3 mg/ml hyaluronic acid (Sigma, from bovine vitreous humor; H-7630). The enzyme was preincubated with the test agent (1 mg/ml for screening purposes) for 10 minutes before starting the reaction by the addition of hyaluronic acid. The enzyme reaction was determined using the method of Aronson and Davidson (J. Biol. Chem. 241 437-440 (1967)). The reaction mixture was incubated for 30 minutes at room temperature.
The reversibility of the hyaluronidase was determined by evaluating enzyme activity at different levels of enzyme (Ackermann and Potter, Proc. Soc. Exp. Biol. Med. 72 1-9 (1949)).

For series [3], the system named is Lactobacillus gasseri. Kind of series: effect on normal vaginal flora (Lactobacillus growth in culture). The series is classed as cell-based. As to conditions: at 0.5 mg/ml. The procedure:
This example illustrates the effect of the inhibitory agents of this invention on the normal vaginal flora. Lactobacillus gasseri, which is found in normal vaginal flora, was obtained from the American Type Culture Collection (Rockville, Md.) and cultured under anaerobic conditions at 37° C. in the presence of the desired test agents. Control samples without added test agents were also run. Samples were collected at twenty minute intervals starting at 120 minutes after the start of incubation through 240 minutes. The absorbance at 550 nm was used to estimate the cell density and inhibitory effects. Nonoxynol-9 was also evaluated for comparison purposes.

Series [4] relates to vaginal/cervical epithelial and other cells. As to conditions: background statement; cited from earlier work.
The test system of series [5] is HIV-1. As to conditions: comparison statement, no data given; cited from earlier work.

As for Nonoxynol-9, the “toxicity towards the host cells (MT2)” value in series [1] was “did show cytotoxic effects”. Moreover, the “IC50 (hyaluronidase)” value in series [2] was “inactive”. The “inhibition of Lactobacillus gasseri growth” value in series [3] is given as “about 60%”. Further, the “lowest concentration that can injure vaginal/cervical epithelial and other cells” value in series [4] is on record as “about 0.0005%”. In addition, the “inhibition of the enveloped virus HIV (in words)” value in series [5] is “inhibits”.

These data come from patent US6239182A, “Method for preventing sexually transmitted diseases” (priority 1999, dated 2001).
